According to patent publication US11485729B2, “Substituted pyridazinone compound” (Shenzhen TargetRx, Inc., priority 2018, dated 2022):

Assay: not given
Details: preclinical toxicology, clinical phase 1 and phase II data; cited from earlier work

Compound | effect on the central thyroid axis, heart rate or bone | liver enzymes
CC(C)c1cc(Oc2c(Cl)cc(-n3nc(C#N)c(=O)[nH]c3=O)cc2Cl)n[nH]c1=O [MGL-3196, 2-(3,5-dichloro-4-((5-isopropyl-6-oxo-1,6-dihydropyridazin-3-yl)oxy)phenyl)-3,5-dioxo-2,3,4,5-tetrahydro-1,2,4-triazine-6-carbonitrile, reference compound] | no inhibitory effect | no increase of the liver enzymes has been observed

Assay: Metabolic stability evaluation in human liver microsomes
Assay type: in vitro ADME
Details: pH 7.4, Human liver microsome, 0.5 mg/mL protein, 1 μM compound
Procedure: (2) Metabolic Stability Evaluation
Microsome assay: human liver microsomes: 0.5 mg/mL, Xenotech; rat liver microsomes: 0.5 mg/mL, Xenotech; coenzyme (NADPH/NADH): 1 mM, Sigma Life Science; magnesium chloride: 5 mM, 100 mM phosphate buffer (pH 7.4).
Preparation of stock solutions: Powder of the example compounds were accurately weighed and dissolved in DMSO to 5 mM respectively.
Preparation of phosphate buffer (100 mM, pH7.4): A pre-prepared 0.5M potassium dihydrogen phosphate (150 mL) was mixed with 0.5M dibasic potassium phosphate (700 mL). The pH of the mixture was adjusted to 7.4 with 0.5M dibasic potassium phosphate solution. The mixture was diluted 5-fold with ultrapure water before use, and magnesium chloride was added to obtain a phosphate buffer (100 mM) containing 100 mM potassium phosphate, 3.3 mM magnesium chloride, pH 7.4.
A NADPH regeneration system solution (containing 6.5 mM NADP, 16.5 mM G-6-P, 3 U/mL G-6-P D, 3.3 mM magnesium chloride) was prepared and placed on wet ice prior to use.
Preparation of stop solution: an acetonitrile solution containing 50 ng/mL propranolol hydrochloride and 200 ng/mL tolbutamide (internal standard). 25057.5 μL of phosphate buffer (pH 7.4) was taken into a 50 mL centrifuge tube, to which 812.5 μL of human liver microsomes were added, and mixed to obtain a liver microsome dilution with a protein concentration of 0.625 mg/mL. 25057.5 μL of phosphate buffer (pH 7.4) was taken into a 50 mL centrifuge tube, to which 812.5 μL of SD rat liver microsomes were added, and mixed to obtain a liver microsome dilution with a protein concentration of 0.625 mg/mL.
Incubation of the samples: The stock solutions of the respective compounds were respectively diluted to 0.25 mM with an aqueous solution containing 70% acetonitrile, and used as a working solution, ready for use. 398 μL of the dilutions of human liver microsomes and rat liver microsomes were added to 96-well incubation plates (N=2), respectively, and 2 μL of 0.25 mM working solution was added respectively and mixed.
Metabolic stability assay: 300 μL of pre-chilled stop solution was added to each well of 96-well deep well plates and placed on ice as stop plates. The 96-well incubation plates and NADPH regeneration system were placed in a 37° C. water bath, shaken at 100 rpm and pre-incubated for 5 min. 80 μL of incubation solution was taken out from each well of the incubation plates and added to the stop plates, mixed, and replenished with 20 μL of NADPH regeneration system solution as a 0-min sample. 80 μL of NADPH regeneration system solution was added to each well of the incubation plates to start the reaction and start counting. […] Separately, 100 μL of the reaction solutions was taken at 10, 30, and 90 min after the reaction, respectively, added to stop plates, and vortexed for 3 minutes to terminate the reaction. The stop plates were centrifuged at 5000×g at 4° C. for 10 min. 100 μL of the supernatant was added to a 96-well plate to which 100 μL of distilled water was previously added, mixed, and analyzed by LC-MS/MS.
Data analysis: The peak areas of the corresponding compounds and internal standard were detected by LC-MS/MS system, and the ratio of the peak area of the compounds to the internal standard was calculated.
The metabolic stability of the compounds in human and rat liver microsomes was evaluated by simultaneously testing and comparing the compounds disclosed herein and the non-deuterated compound. The non-deuterated compound MGL-3196 was used as a control sample.

half-life at 1 μM | microsomal CLint at 1 μM | Compound
> 16.7 h | 0.1 to 2 µL/min/mg | [2H]C([2H])([2H])C(C)c1cc(Oc2c(Cl)cc(-n3nc(C#N)c(=O)[nH]c3=O)cc2Cl)n[nH]c1=O (stereo not drawn) [Compound M-1, 2-(3,5-dichloro-4-((6-oxo-5-(propan-2-yl-1,1,1-d3)-1,6-dihydropyridazin-3-yl)oxy)phenyl)-3,5-dioxo-2,3,4,5-tetrahydro-1,2,4-triazine-6-carbonitrile]
> 16.7 h | 0.1 to 2 µL/min/mg | [2H]C([2H])([2H])C(c1cc(Oc2c(Cl)cc(-n3nc(C#N)c(=O)[nH]c3=O)cc2Cl)n[nH]c1=O)C([2H])([2H])[2H] [Compound M-2, 2-(3,5-dichloro-4-((6-oxo-5-(propan-2-yl-1,1,1,3,3,3-d6)-1,6-dihydropyridazin-3-yl)oxy)phenyl)-3,5-dioxo-2,3,4,5-tetrahydro-1,2,4-triazine-6-carbonitrile]
> 16.7 h | 0.1 to 2 µL/min/mg | [2H]c1c(Cl)c(Oc2cc(C(C([2H])([2H])[2H])C([2H])([2H])[2H])c(=O)[nH]n2)c(Cl)c([2H])c1-n1nc(C#N)c(=O)[nH]c1=O [Compound M-3, 2-(3,5-dichloro-4-((6-oxo-5-(propan-2-yl-1,1,1,3,3,3-d6)-1,6-dihydropyridazin-3-yl)oxy)phenyl-2,6-d2)-3,5-dioxo-2,3,4,5-tetrahydro-1,2,4-triazine-6-carbonitrile]
> 16.7 h | 0.1 to 2 µL/min/mg | [2H]c1c(Cl)c(Oc2cc(C(C)C)c(=O)[nH]n2)c(Cl)c([2H])c1-n1nc(C#N)c(=O)[nH]c1=O [Compound M-4, 2-(3,5-dichloro-4-((5-isopropyl-6-oxo-1,6-dihydropyridazin-3-yl)oxy)phenyl-2,6-d2)-3,5-dioxo-2,3,4,5-tetrahydro-1,2,4-triazine-6-carbonitrile]
< 8.33 h | 2.5 to 3 µL/min/mg | CC(C)c1cc(Oc2c(Cl)cc(-n3nc(C#N)c(=O)[nH]c3=O)cc2Cl)n[nH]c1=O [MGL-3196, 2-(3,5-dichloro-4-((5-isopropyl-6-oxo-1,6-dihydropyridazin-3-yl)oxy)phenyl)-3,5-dioxo-2,3,4,5-tetrahydro-1,2,4-triazine-6-carbonitrile, reference compound]
